Reference: paper PMC4980843 (European journal of medicinal chemistry, 2009)
Read-outs that look alike come from different tables or passages of the source.

Columns and labels:
[1] = test system: human HT-29 colon tumor cell line; experiment: Tumor cell growth inhibition, Cell Titer Glo assay, 72 h; type: cell-based; conditions: HT-29 cells
[2] = target: human PDE3A isozyme (Homo sapiens, UniProt Q14432); experiment: IMAP fluorescence polarization phosphodiesterase assay; type: biochemical; conditions: for % PDE3 Inhibition at 50 μM, cGMP: cGMP as substrate
human PDE3A isozyme, sequence (Q14432 whole entry): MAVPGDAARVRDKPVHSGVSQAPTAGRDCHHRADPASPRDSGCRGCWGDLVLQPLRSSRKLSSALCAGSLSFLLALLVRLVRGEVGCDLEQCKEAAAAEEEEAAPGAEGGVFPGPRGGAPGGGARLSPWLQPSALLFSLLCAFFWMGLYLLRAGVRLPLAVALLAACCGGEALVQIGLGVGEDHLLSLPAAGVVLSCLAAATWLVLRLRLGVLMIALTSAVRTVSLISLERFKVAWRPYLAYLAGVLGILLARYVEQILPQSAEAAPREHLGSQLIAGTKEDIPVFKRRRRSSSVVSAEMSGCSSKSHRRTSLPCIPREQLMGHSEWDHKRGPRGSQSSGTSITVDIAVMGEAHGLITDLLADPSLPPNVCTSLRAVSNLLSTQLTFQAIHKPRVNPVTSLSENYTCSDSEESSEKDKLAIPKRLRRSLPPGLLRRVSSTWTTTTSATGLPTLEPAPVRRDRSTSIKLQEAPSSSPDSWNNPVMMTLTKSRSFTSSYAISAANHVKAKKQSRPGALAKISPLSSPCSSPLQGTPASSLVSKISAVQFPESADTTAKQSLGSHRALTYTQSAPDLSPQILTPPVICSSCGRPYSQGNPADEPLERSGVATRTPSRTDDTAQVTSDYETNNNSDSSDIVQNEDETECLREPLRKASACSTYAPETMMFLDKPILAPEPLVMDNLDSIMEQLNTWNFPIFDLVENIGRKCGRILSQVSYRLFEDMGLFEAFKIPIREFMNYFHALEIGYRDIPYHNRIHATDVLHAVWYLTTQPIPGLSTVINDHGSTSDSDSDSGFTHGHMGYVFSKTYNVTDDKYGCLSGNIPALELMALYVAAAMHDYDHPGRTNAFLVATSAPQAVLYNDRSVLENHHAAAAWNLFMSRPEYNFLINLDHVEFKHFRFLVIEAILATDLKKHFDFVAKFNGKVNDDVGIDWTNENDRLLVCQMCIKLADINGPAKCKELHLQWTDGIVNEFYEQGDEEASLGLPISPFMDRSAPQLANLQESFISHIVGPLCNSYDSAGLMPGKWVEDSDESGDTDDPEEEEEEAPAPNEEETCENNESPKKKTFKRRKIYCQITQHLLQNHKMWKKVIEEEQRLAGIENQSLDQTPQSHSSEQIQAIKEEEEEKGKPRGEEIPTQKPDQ

Row | Compound | tumor cell growth inhibitory activity (in words) [1] | also measured
1 | CCOc1ccccc1-c1cc(-c2ccsc2)[nH]c(=O)c1C#N [Compound 21, 4-(2-Ethoxyphenyl)-2-oxo-6-thiophen-3-yl-1,2-dihydropyridine-3 carbonitrile] | displayed tumor cell growth inhibitory activity | –
2 | COc1ccccc1-c1cc(-c2ccsc2)[nH]c(=N)c1C#N [Compound 29, 2-Imino-4-(2-methoxyphenyl)-6-(thiophen-3-yl)-1,2-dihydropyridine-3-carbonitrile] | displayed tumor cell growth inhibitory activity | inhibition at 50 µM ([2]; read-out: % PDE3 Inhibition at 50 μM, cGMP, 50 μM, cGMP as substrate): -95%
3 | COc1ccc(OC)c(-c2cc(-c3ccc(Br)cc3)[nH]c(=N)c2C#N)c1 [Compound 9, 6-(4-Bromophenyl)-4-(2,5-dimethoxyphenyl)-2-imino1,2-dihydropyridine3-carbonitrile] | displayed tumor cell growth inhibitory activity | –
4 | N#Cc1c(-c2ccccc2O)cc(-c2ccc(Br)cc2)[nH]c1=O [Compound 1, 6-(4-Bromophenyl)-4-(2-hydroxyphenyl)-2-oxo-1,2-dihydropyridine-3-carbonitrile] | displayed tumor cell growth inhibitory activity | –
5 | N#Cc1c(-c2ccccc2O)cc(-c2ccsc2)[nH]c1=O [Compound 19, 4-(2-Hydroxyphenyl)-2-oxo-6-thiophen-3-yl-1,2-dihydropyridine-3-carbonitrile] | displayed tumor cell growth inhibitory activity | –
6 | CCOc1ccccc1-c1cc(-c2ccsc2)[nH]c(=N)c1C#N [Compound 27, 4-(2-Ethoxyphenyl)-2-imino-6-(thiophen-3-yl)-1,2-dihydropyridine-3-carbonitrile] | displayed tumor cell growth inhibitory activity | –
7 | 2-Imino-4-phenyl-6-(thiophen-3-yl)-1,2-dihydropyridine-3-carbonitrile [Compound 25] | – | % PDE3 Inhibition at 50 μM, cAMP ([2]; 50 μM, cAMP as substrate): 21%; % PDE3 Inhibition at 50 μM, cGMP ([2]; 50 μM): 26%
8 | N#Cc1c(-c2cccc(Cl)c2)cc(-c2ccccc2)[nH]c1=O [Compound 15, 4-(3-Chlorophenyl)-2-oxo-6-phenyl-1,2-dihydropyridine-3-carbonitrile] | displayed tumor cell growth inhibitory activity | –
9 | CCOc1ccc(-c2cc(-c3ccsc3)[nH]c(=N)c2C#N)cc1 [Compound 26, 4-(4-Ethoxyphenyl)-2-imino-6-(thiophen-3-yl)-1,2-dihydropyridine-3-carbonitrile] | no tumor cell growth inhibitory activity | % PDE3 Inhibition at 50 μM, cGMP ([2]; 50 μM): > 50%; inhibition at 50 µM ([2]; read-out: % PDE3 Inhibition at 50 μM, cAMP, 50 μM, cAMP as substrate): > 50%
10 | COc1ccc(-c2cc(-c3ccsc3)[nH]c(=N)c2C#N)cc1 [Compound 28, 2-Imino-4-(4-methoxyphenyl)-6-(thiophen-3-yl)-1,2-dihydropyridine-3-carbonitrile] | displayed tumor cell growth inhibitory activity | –
